Experimental data taken from patent US6218392A, “Fused pyridazine compounds” (priority 1994, dated 2001).
pIC50: −log10 of the molar value. Where a name gives a salt, the structure may show the parent alone.

Experiments:
cGMP-PDE = target: T1, cGMP-PDE (Sus scrofa, UniProt A0A287B475); test: Inhibitory activity against cGMP-PDE prepared from swine lung; assay type: biochemical; settings: 1 mM EGTA, 1 mM cGMP as substrate, DMSO 5% or below
T1 construct: Swine lung was minched, followed by the addition of five times (by volume) as much buffer A; from tissue; host or cells: swine lung
Protocol: The enzyme activity of the cGMP-PDE prepared from swine lung was determined according to the method of Thompson et al. This determination was conducted in the presence of 1 mM EGTA by the use of 1 mM cGMP as substrate. Each compound according to the present invention was dissolved in DMSO and thereafter added to the reaction system to determine the inhibitory activity of the compound. The final concentration of DMSO in the reaction solution was controlled to 5% or below.
The preparation of cGMP-PDE was conducted as follows.
Swine lung was minched, followed by the addition of five times (by volume) as much buffer A (comprising Tris/HCl (20 mM), Mg acetate (2 mM), 2-mercaptoethanol (10 mM), EGTA (0.1 mM) and PMSF (0.2 mM) and adjusted to pH7.4). The resulting mixture was homogenized and centrifuged at 1000×g for 5 minutes. Ammonium sulfate was added to the obtained supernatant and the resulting mixture was centrifuged at 20000×g for 45 minutes to collect a fraction precipitating between 30 and 40% saturation with ammonium sulfate. This fraction was dialyzed against buffer A and passed through a column of DEAE-Toyopearl 650S (a product of Tosoh, Tokyo, Japan). The column was washed with buffer A and subjected to gradient elution with 0.05 to 0.2 M NaClibuffer A to collect a cGMP-PDE fraction.
This cGMP-PDE fraction was passed through Blue-Sepharose CL-6B (a product of Pharmacia, Uppsala, Sweden). The resulting column was washed with buffer A containing cAMP (10 mM) and NaCl (0.5 M) and eluted with buffer A containing cGMP (10 mM) and NaCl (0.5 M). The obtained fraction was dialyzed, concentrated and stored.

[1] = test system: pulmonary arterial pressure (PAP); test: Pulmonary arterial pressure lowering activity on anesthetized thoracotomized dog by intravenous administration; assay type: in vivo; settings: relative ratio to activity of sodium 1-[chloro-4-(3,4-methylenedioxybenzyl)aminoquinazolin-2-yl]piperidine-4-carboxylate
Protocol: Male and female hybrid dogs having a weight of about 10 kg were operated under enflurane anesthesia with N2 O/O2 as carrier. Each dog was thoracotomized in the left fourth intercostal space and a pressure transducer (MPC-500 mfd. by Miller) was inserted into the pulmonary artery to determine the pulmonary arterial pressure (PAP). This experiment was conducted with the mean PAP (mPAP) increased by about 10 mmHg by lowering the pressure of oxygen fed by about 40% of the normal one. Each compound according to the present invention was dissolved in Polyethylene glycol 400 (a product of Wako Pure Chemical Industries, Ltd.) in a concentration of 1 mg/ml and, if necessary, further diluted with Polyethylene glycol 400. The resulting solution was intravenously administered to the dog through a polyethylene catheter indwelling in the femoral vein.

Row | SMILES | pIC50 (cGMP-PDE) | PAP lowering activity [1]
1 | COc1ccc(CNc2nnc(Cl)c3ccc(C#N)cc23)cc1Cl [Example 1, 1-Chloro-4-(3-chloro-4-methoxybenzyl)amino-6-cyanophthalazine] | 8.77 | ≥ 3
2 | COc1ccc(CNc2nnc(N3CCC(O)CC3)c3ccc(C#N)cc23)cc1Cl [Example 4, 4-(3-Chloro-4-methoxybenzyl)amino-6-cyano-1-(4-hydroxypiperidino)phthalazine hydrochloride] | 9.74 | –
3 | COc1ccc(CNc2nnc(N3CCC(CO)CC3)c3ccc(C#N)cc23)cc1Cl.Cl [Example 6, 4-(3-Chloro-4-methoxybenzyl)amino-6-cyano-1-[4-(hydroxymethyl)piperidino]phthalazine hydrochloride] | 10.82 | 10
4 | COc1ccc(CNc2nnc(NCCCO)c3ccc(C#N)cc23)cc1Cl [Example 7, 4-(3-Chloro-4-methoxybenzyl)amino-6-cyano-1-(3-hydroxypropyl)aminophthalazine] | 8.92 | 1
5 | COc1ccc(CNc2nnc(N3CCC(CCO)CC3)c3ccc(C#N)cc23)cc1Cl.Cl [Example 8, 4-(3-Chloro-4-methoxybenzyl)amino-6-cyano-1-[4-(2-hydroxyethyl)piperidino]phthalazine hydrochloride] | 10.52 | 10
6 | COc1ccc(CNc2nnc(N3CCC(C)(O)CC3)c3ccc(C#N)cc23)cc1Cl.Cl [Example 9, 4-(3-Chloro-4-methoxybenzyl)amino-6-cyano-1-(4-hydroxy-4-methylpiperidino)phthalazine hydrochloride] | 9.15 | 10
7 | COc1ccc(CNc2nnc(N3CCCC(O)C3)c3ccc(C#N)cc23)cc1Cl.Cl (stereo not drawn) [Example 10, 4-(3-Chloro-4-methoxybenzyl)amino-6-cyano-1-(3-hydroxypiperidino)phthalazine hydrochloride] | – | 10
8 | COc1ccc(CNc2nnc(NCc3ccccn3)c3ccc(C#N)cc23)cc1Cl [Example 11, 4-(3-Chloro-4-methoxybenzyl)amino-6-cyano-1-(2-pyridylmethyl)aminophthalazine dihydrochloride] | 9.96 | –
9 | COc1ccc(CNc2nnc(N3CCC(=O)CC3)c3ccc(C#N)cc23)cc1Cl.Cl [Example 19, 4-(3-Chloro-4-methoxybenzyl)amino-6-cyano-1-(4-oxopiperidino)phthalazine hydrochloride] | 9.28 | 3-10
10 | COc1ccc(CNc2nnc(N3CCC(C(=O)O)CC3)c3ccc(C#N)cc23)cc1Cl [Example 20, 1-(4-Carboxypiperidino)-4-(3-chloro-4-methoxybenzyl)-amino-6-cyanophthalazine hydrochloride] | 9.92 | 0.3-1
11 | COc1ccc(CNc2nn(CCCO)c(=O)c3ccc(C#N)cc23)cc1Cl [Example 25, 4-(3-Chloro-4-methoxybenzyl)amino-6-cyano-2-(3-hydroxypropyl)-1(2H)-phthalazinone] | 8.85 | 3
12 | Cl.N#Cc1ccc2c(N3CCC(O)CC3)nnc(NCc3ccc4c(c3)OCO4)c2c1 [Example 26, 6-Cyano-1-(4-hydroxypiperidino)-4-(3,4-methylenedioxy-benzyl)aminophthalazine hydrochloride] | 8.40 | 1
13 | COc1ccc(CNc2nnc(-n3ccnc3)c3ccc(Cl)cc23)cc1Cl [Example 31, 6-Chloro-4-(3-chloro-4-methoxybenzyl)amino-1-(imidazol-1-yl)phthalazine] | 8.43 | 1
14 | COc1ccc(CNc2nnc(N3CCC(O)CC3)c3ccc(Cl)cc23)cc1Cl.Cl [Example 32, 6-Chloro-4-(3-chloro-4-methoxybenzyl)amino-1-(4-hydroxypiperidino)phthalazine hydrochloride] | 8.36 | 1
15 | COc1ccc(CNc2nnc(N3CCC(CO)CC3)c3ccc(Cl)cc23)cc1Cl [Example 36, 6-Chloro-4-(3-chloro-4-methoxybenzyl)amino-1-[4-(hydroxymethyl)piperidino]phthalazine] | 8.72 | ≥ 1
16 | COc1ccc(CNc2nnc(N3CCC(CCO)CC3)c3ccc(Cl)cc23)cc1Cl [Example 37, 6-Chloro-4-(3-chloro-4-methoxybenzyl)amino-1-[4-(2-hydroxyethyl)piperidino]phthalazine] | 8.74 | ≤ 0.33
17 | COc1ccc(CNc2nnc(N3CCC(C(=O)O)CC3)c3ccc(Cl)cc23)cc1Cl [Example 43, 1-(4-Carboxypiperidino)-6-chloro-4-(3-chloro-4-methoxybenzyl)aminophthalazine] | 9.43 | 1
18 | COc1ccc(CNc2nnc(N(C)CCCC(=O)O)c3ccc(Cl)cc23)cc1Cl [Example 44] | 8.68 | ≤ 0.33
19 | COc1ccc(CNc2nnc(Cl)c3ccc([N+](=O)[O-])cc23)cc1Cl [Example 49, 1-Chloro-4-(3-chloro-4-methoxybenzyl)amino-6-nitrophthalazine] | 8.73 | 1
20 | COc1ccc(CNc2nnc(N3CCC(O)CC3)c3ccc([N+](=O)[O-])cc23)cc1Cl [Example 51, 4-(3-Chloro-4-methoxybenzyl)amino-1-(4-hydroxy-piperidino)-6-nitrophthalazine hydrochloride] | 10.28 | –
21 | COc1ccc(CNc2nnc(N3CCC(CO)CC3)c3ccc([N+](=O)[O-])cc23)cc1Cl.Cl [Example 52, 4-(3-Chloro-4-methoxybenzyl)amino-1-[4-(hydroxymethyl)piperidino]-6-nitrophthalazine hydrochloride] | 10.00 | 10
22 | COc1ccc(CNc2nnc(N3CCC(CCO)CC3)c3ccc([N+](=O)[O-])cc23)cc1Cl.Cl [Example 53, 4-(3-Chloro-4-methoxybenzyl)amino-1-[4-(2-hydroxyethyl)piperidino]-6-nitrophthalazine hydrochloride] | 9.64 | 10
23 | CCOC(=O)C1CCN(c2nnc(NCc3ccc(OC)c(Cl)c3)c3cc([N+](=O)[O-])ccc23)CC1 [Example 55, 1-(4-Ethoxycarbonylpiperidino)-4-(3-chloro-4-methoxybenzyl)amino-6-nitrophthalazine] | 8.34 | ≥ 1
24 | COc1ccc(CNc2nnc(N3CCC(C(=O)O)CC3)c3ccc([N+](=O)[O-])cc23)cc1Cl.Cl [Example 56, 1-(4-Carboxypiperidino)-4-(3-chloro-4-methoxybenzyl)amino-6-nitrophthalazine hydrochloride] | 7.90 | ≥ 1
25 | O=[N+]([O-])c1ccc2c(-n3ccnc3)nnc(NCc3ccc4c(c3)OCO4)c2c1 [Example 60, 1-(Imidazol-1-yl)-4-(3,4-methylenedioxybenzyl)amino-6-nitrophthalazine] | 7.69 | 1
26 | COc1ccc(CNc2nnc(N3CCC(C(=O)O)CC3)c3cc(Cl)c(Cl)cc23)cc1Cl [Example 67, 1-(4-Carboxypiperidino)-4-(3-chloro-4-methoxybenzyl)amino-6,7-dichlorophthalazine] | 9.49 | 0.33
